Data as given in publication PMC6199744, “Development of Chemical Proteomics for the Folateome and Analysis of the Kinetoplastid Folateome” (ACS Infectious Diseases, 2018).
Where two headings read alike, the source gives them in different places.

How the values were obtained:
Assay type in all cases: binding
[1] = target: T1, HeLa cell extract proteins (Homo sapiens, UniProt O43809)
T1 construct: endogenous in cells; host or cells: HeLa cell extract

[2] = target: T2, HeLa cell extract proteins (Homo sapiens, UniProt P06703)
T2 construct: endogenous in cells; host or cells: HeLa cell extract

[3] = target: T3, HeLa cell extract proteins (Homo sapiens, UniProt P25788)
T3 construct: endogenous in cells; host or cells: HeLa cell extract
T3 sequence (P25788 1-255): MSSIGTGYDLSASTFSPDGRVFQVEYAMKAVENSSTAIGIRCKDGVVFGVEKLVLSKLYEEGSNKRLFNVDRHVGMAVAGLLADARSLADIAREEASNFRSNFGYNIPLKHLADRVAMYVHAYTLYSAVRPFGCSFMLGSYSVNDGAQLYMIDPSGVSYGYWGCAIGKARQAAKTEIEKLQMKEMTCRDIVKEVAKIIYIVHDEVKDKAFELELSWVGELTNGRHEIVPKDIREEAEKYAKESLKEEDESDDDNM

[4] = target: T4, HeLa cell extract proteins (Homo sapiens, UniProt P29401)
T4 construct: endogenous in cells; host or cells: HeLa cell extract
T4 sequence (P29401 1-623): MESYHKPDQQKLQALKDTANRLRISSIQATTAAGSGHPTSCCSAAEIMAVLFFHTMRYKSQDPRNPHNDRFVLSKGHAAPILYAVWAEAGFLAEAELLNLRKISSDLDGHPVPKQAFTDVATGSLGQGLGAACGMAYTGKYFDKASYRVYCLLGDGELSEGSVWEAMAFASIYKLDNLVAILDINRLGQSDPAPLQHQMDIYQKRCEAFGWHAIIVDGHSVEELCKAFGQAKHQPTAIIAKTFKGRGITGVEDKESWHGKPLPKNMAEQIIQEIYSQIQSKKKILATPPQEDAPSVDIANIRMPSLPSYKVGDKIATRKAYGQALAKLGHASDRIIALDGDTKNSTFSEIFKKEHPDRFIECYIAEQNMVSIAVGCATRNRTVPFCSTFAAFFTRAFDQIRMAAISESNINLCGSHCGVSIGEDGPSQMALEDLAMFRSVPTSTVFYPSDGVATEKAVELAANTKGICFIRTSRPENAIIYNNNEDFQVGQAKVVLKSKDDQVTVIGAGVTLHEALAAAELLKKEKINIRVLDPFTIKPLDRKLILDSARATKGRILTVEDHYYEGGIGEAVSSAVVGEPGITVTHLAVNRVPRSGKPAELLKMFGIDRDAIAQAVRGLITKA

[5] = target: T5, HeLa cell extract proteins (Homo sapiens, UniProt P78527)
T5 construct: endogenous in cells; host or cells: HeLa cell extract

[6] = target: T6, HeLa cell extract proteins (Homo sapiens, UniProt Q16576)
T6 construct: endogenous in cells; host or cells: HeLa cell extract
T6 sequence (Q16576 whole entry): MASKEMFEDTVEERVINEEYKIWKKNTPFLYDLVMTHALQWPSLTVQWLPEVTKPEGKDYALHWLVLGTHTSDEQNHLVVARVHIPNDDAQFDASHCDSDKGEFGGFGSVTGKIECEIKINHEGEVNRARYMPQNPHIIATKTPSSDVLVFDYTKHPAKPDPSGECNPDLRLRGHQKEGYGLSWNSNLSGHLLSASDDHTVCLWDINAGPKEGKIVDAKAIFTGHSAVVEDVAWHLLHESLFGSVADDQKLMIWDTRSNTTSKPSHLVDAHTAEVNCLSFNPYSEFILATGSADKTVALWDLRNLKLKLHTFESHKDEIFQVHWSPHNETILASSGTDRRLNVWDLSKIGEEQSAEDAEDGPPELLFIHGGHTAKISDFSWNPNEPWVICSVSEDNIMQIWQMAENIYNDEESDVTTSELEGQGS

[7] = target: T7, HeLa cell extract proteins (Homo sapiens, UniProt Q86VP6)
T7 construct: endogenous in cells; host or cells: HeLa cell extract
T7 sequence (Q86VP6 1-1230): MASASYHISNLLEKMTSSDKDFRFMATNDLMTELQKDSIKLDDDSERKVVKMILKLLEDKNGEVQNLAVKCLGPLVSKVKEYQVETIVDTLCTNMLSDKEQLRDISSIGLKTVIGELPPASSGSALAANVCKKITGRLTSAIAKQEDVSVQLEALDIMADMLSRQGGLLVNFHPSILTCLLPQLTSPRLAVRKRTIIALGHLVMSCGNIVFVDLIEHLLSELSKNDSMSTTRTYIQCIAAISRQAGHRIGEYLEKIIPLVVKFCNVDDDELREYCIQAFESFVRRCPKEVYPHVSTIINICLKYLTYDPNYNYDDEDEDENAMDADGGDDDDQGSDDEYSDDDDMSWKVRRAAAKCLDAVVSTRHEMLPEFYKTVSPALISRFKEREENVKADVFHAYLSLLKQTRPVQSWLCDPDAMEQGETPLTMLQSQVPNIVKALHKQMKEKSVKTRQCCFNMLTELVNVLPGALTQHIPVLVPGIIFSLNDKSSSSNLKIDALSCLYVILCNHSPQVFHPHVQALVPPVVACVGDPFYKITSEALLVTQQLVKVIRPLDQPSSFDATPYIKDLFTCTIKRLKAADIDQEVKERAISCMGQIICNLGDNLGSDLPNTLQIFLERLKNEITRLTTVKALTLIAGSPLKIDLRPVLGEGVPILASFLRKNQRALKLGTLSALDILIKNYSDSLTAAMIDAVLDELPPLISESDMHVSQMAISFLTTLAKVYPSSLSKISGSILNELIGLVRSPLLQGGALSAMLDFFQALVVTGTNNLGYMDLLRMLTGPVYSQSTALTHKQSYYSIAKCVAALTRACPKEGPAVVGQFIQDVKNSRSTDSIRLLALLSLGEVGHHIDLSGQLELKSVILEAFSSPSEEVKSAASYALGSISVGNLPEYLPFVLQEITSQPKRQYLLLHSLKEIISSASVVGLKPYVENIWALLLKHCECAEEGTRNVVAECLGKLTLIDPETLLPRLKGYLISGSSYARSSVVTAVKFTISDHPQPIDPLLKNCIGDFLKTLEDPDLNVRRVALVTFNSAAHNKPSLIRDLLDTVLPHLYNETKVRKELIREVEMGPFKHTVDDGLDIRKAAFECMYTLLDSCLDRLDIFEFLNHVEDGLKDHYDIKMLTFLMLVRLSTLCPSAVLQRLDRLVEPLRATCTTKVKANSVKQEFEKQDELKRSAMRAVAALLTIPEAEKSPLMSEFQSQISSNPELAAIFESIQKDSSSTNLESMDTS

[8] = target: T8, HeLa cell extract proteins (Homo sapiens, UniProt Q9UJX4)
T8 construct: endogenous in cells; host or cells: HeLa cell extract
T8 sequence (Q9UJX4 whole entry): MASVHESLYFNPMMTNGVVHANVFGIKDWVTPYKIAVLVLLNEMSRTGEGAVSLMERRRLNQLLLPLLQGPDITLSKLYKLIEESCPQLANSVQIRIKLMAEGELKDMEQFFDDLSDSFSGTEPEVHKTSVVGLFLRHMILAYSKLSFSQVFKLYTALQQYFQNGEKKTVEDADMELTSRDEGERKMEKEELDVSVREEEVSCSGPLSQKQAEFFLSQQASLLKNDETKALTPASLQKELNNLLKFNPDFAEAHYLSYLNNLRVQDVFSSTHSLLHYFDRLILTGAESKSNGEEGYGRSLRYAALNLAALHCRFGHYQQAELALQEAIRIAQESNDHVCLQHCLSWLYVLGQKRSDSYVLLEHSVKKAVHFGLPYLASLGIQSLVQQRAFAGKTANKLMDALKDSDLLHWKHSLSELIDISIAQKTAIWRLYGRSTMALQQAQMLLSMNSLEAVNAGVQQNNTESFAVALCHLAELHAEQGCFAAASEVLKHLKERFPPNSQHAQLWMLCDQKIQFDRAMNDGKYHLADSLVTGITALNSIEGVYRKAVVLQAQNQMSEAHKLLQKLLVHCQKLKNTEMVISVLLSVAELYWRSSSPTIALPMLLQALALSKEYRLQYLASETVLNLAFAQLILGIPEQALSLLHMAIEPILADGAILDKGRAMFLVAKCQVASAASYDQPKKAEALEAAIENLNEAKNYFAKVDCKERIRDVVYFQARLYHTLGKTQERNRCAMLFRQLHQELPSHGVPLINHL

[9] = HeLa, protein PRKDC (ISOFORM 1 OF DNA-DEPENDENT PROTEIN KINASE CATALYTIC SUBUNIT)

T1 sequence (O43809 whole entry): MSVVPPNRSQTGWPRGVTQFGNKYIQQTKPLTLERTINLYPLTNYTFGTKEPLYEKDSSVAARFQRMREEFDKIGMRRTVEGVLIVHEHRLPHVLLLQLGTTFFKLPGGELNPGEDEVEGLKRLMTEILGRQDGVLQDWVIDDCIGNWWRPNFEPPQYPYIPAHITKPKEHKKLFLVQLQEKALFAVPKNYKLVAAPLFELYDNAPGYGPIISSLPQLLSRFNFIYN

Structure (SMILES)	fold changes relative to vehicle control ([1]; protein NUDT21, HeLa)	fold changes relative to vehicle control ([2]; protein S100A6, HeLa)	fold changes relative to vehicle control ([3]; protein PSMA3, HeLa)	fold changes relative to vehicle control ([4]; protein TKT, HeLa)	fold changes relative to vehicle control ([5]; HeLa, protein PRKDC)	fold changes relative to vehicle control ([6]; protein RBBP7, HeLa)	fold changes relative to vehicle control ([7]; protein CAND1, HeLa)	fold changes relative to vehicle control ([8]; captured protein ANAPC5, HeLa)	fold changes relative to vehicle control ([2]; HeLa, protein S100A6)	fold changes relative to vehicle control ([3]; HeLa, captured protein PSMA3)	fold changes relative to vehicle control ([4]; HeLa, protein TKT)	fold changes relative to vehicle control [5, 9]	fold changes relative to vehicle control ([6]; HeLa, protein RBBP7)	fold changes relative to vehicle control ([8]; HeLa, captured protein ANAPC5)	other results
Nc1nc2cccc(-c3ccccc3)c2n1Cc1ccc(Cl)c(Cl)c1 [compound 3]	0.99	0.95	0.86	0.9	1.2	0.85	0.86	1.07							
Nc1nc2[nH]cc(CCc3ccc(C(=O)N[C@@H](CCC(=O)O)C(=O)O)cc3)c2c(=O)[nH]1 [PTX, pemetrexed]															fold changes relative to vehicle control [1]: 0.97; fold changes relative to vehicle control [2]: 1.46; fold changes relative to vehicle control [3]: 0.99; fold changes relative to vehicle control [4]: 1.2; fold changes relative to vehicle control [5]: 1.06; fold changes relative to vehicle control [6]: 1.04; fold changes relative to vehicle control [7]: 0.96; fold changes relative to vehicle control [8]: 1.07
Nc1nc2c(c(=O)[nH]1)N(C=O)C(CNc1ccc(C(=O)N[C@@H](CCC(=O)O)C(=O)O)cc1)CN2 (some centres unmarked) [LEU, leucovorin]	1.11						0.99		1.3	1.02	1.12	1.05	1.05	1.07	
CCCCCCOc1cccc(Cc2cnc(N)nc2N)c1 [compound 2]	1.28	1.89	1.27	2.08	0.89	1.47	1.95	1							
NCCOCCOCC(=O)Nc1nc2ncc(CNc3ccc(C(=O)NC(CCC(=O)O)C(=O)O)cc3)nc2c(=O)[nH]1 (centres unmarked) [compound 6]	1						1.11		1.94	1.01	1.26	1.17	1.18	1.05	
CCCCCCOc1ccc(Cc2cnc(N)nc2N)cc1 [compound 1]	1.16	1.13	1.04	1.41	1.01	1.05	1.15	1.06							
NCCCNc1ccc(C(=O)NC(CCC(=O)O)C(=O)O)cc1 (centres unmarked) [compound 7]	0.98						0.77		1.26	0.98	0.99	1.16	0.98	1.1	
